Data on 2 compounds can be found in article PMC10535762 (2023).

The assay deals with poly A–poly U (pApU, ds-RNA) (RNA, polymer) A/U. The assay can be described thus: fluorimetric titration, Scatchard fit. To be noted: Na+ (sodium cacodylate, I = 0.05 M), pH 7.0, 25 °C, recalculated for fixed n = 0.2 [bound dye]/[polynucleotide], c(nucleobase), per base.

Take `Cc1cccc(C)c1B(c1c(C)cc(N(C)C)cc1C)c1c(C)cc([N+](C)(C)Cc2cn(CC[C@H](NC(=O)OCC3c4ccccc4-c4ccccc43)C(=O)O)nn2)cc1C`: the “log Ks” value (TB-AA 3 µM) is on record as 6.0.
For the compound `C#CC[N+](C)(C)c1cc(C)c(B(c2c(C)cccc2C)c2c(C)cc(N(C)C)cc2C)c(C)c1`, the “log Ks” value (TB-p 5 µM) is 7.1.
